Data taken from paper PMC10866072, “Design, synthesis, molecular modelling and biological evaluation of novel 6-amino-5-cyano-2-thiopyrimidine derivatives as potent anticancer agents against leukemia and apoptotic inducers” (Journal of Enzyme Inhibition and Medicinal Chemistry, 2024).

Tests used:
EKVX = type: cell-based; settings: one dose 10^-5 M, 48 h
MCF7 = type: cell-based; settings: one dose 10^-5 M, 48 h
ACHN = type: cell-based; settings: one dose 10^-5 M, 48 h
A549/ATCC = type: cell-based; settings: one dose 10^-5 M, 48 h
UO-31 = type: cell-based; settings: one dose 10^-5 M, 48 h
M14 = type: cell-based; settings: one dose 10^-5 M, 48 h
NCI-H226 = type: cell-based; settings: one dose 10^-5 M, 48 h
HCC-2998 = type: cell-based; settings: one dose 10^-5 M, 48 h
786-0 = type: cell-based; settings: one dose 10^-5 M, 48 h
NCI-H460 = type: cell-based; settings: one dose 10^-5 M, 48 h
MDA-MB-231/ATCC = type: cell-based; settings: one dose 10^-5 M, 48 h
NCI-H23 = type: cell-based; settings: one dose 10^-5 M, 48 h
UACC-62 = type: cell-based; settings: one dose 10^-5 M, 48 h
TK-10 = type: cell-based; settings: one dose 10^-5 M, 48 h
HCT-15 = type: cell-based; settings: one dose 10^-5 M, 48 h
OVCAR-3 = type: cell-based; settings: one dose 10^-5 M, 48 h
HS 578T = type: cell-based; settings: one dose 10^-5 M, 48 h, HS 578T
K-562 = type: cell-based; settings: 48 h
SK-OV-3 = type: cell-based; settings: one dose 10^-5 M, 48 h
IGROV1 = type: cell-based; settings: 48 h
BT-549 = type: cell-based; settings: one dose 10^-5 M, 48 h
HOP-62 = type: cell-based; settings: one dose 10^-5 M, 48 h
SF-268 = type: cell-based; settings: one dose 10^-5 M, 48 h
HT29 = type: cell-based; settings: 48 h
COLO 205 = type: cell-based; settings: one dose 10^-5 M, 48 h
MDA-MB-468 = type: cell-based; settings: one dose 10^-5 M, 48 h
HOP-92 = type: cell-based; settings: one dose 10^-5 M, 48 h
CAKI-1 = type: cell-based; settings: one dose 10^-5 M, 48 h
LOX IMVI = type: cell-based; settings: one dose 10^-5 M, 48 h
SR = type: cell-based; settings: one dose 10^-5 M, 48 h
MALME-3M = type: cell-based; settings: one dose 10^-5 M, 48 h
RPMI-8226 = type: cell-based; settings: one dose 10^-5 M, 48 h
SK-MEL-2 = type: cell-based; settings: one dose 10^-5 M, 48 h
MOLT-4 = type: cell-based; settings: one dose 10^-5 M, 48 h
PC-3 = type: cell-based; settings: one dose 10^-5 M, 48 h
SNB-75 = type: cell-based; settings: one dose 10^-5 M, 48 h
[1] = system: full NCI 60 cell lines panel; settings: for activity on all 60 cancer cell lines tested (in words): one dose
Procedure: 60 different human tumour cell lines-representing leukaemia, melanoma, and malignancies of the lung, colon, brain, ovary, breast, prostate, and kidney are used in the operation of this screen.
Compounds were dissolved in DMSO: glycerol (91) and were kept in a freezer at −70° C. The synthesised compounds were introduced to the culture at a single concentration of 1 0 ^−5 M and left to incubate for 48 h. A protein-binding dye called sulforhodamine B was used to measure end points (SRB).
A mean graph showing the % growth of treated cells is used to represent the one-dose data. The value provided for the One-dose assay represents growth in comparison to the no-drug control and to the number of cells at time zero. This enables the identification of lethality (values between 0 and 100) as well as growth inhibition (values less than 0). A value of 100, for instance, indicates no growth inhibition. A value of 40 would indicate 60% growth inhibition. A value of 0 indicates no net growth over the course of the experiment. A value of −40 would indicate 40% lethality.
Furthermore, the average sensitivity of all cell lines to the compound is termed as the full panel mean graph midpoints (MG-MID). The complete panel mean graph midpoints refers to the average sensitivity of all cell lines to the chemical (MG-MID). A measure of a compound’s selectivity for a given cell line is the ratio created by dividing the full panel mean graph midpoints (MG-MID) concentration by the individual subpanel MG-MID concentrations (obtained as the average sensitivity of all the cell lines in a given subpanel to the test compound).

HCT-116 = type: cell-based; settings: one dose 10^-5 M, 48 h
SK-MEL-28 = type: cell-based; settings: one dose 10^-5 M, 48 h
SNB-19 = type: cell-based; settings: one dose 10^-5 M, 48 h
A498 = type: cell-based; settings: one dose 10^-5 M, 48 h
OVCAR-8 = type: cell-based; settings: one dose 10^-5 M, 48 h
KM12 = type: cell-based; settings: one dose 10^-5 M, 48 h
NCI-H522 = type: cell-based; settings: one dose 10^-5 M, 48 h
HL-60(TB) = type: cell-based; settings: one dose 10^-5 M, 48 h
OVCAR-5 = type: cell-based; settings: one dose 10^-5 M, 48 h
T-47D = type: cell-based; settings: one dose 10^-5 M, 48 h
UACC-257 = type: cell-based; settings: one dose 10^-5 M, 48 h
CCRF-CEM = type: cell-based; settings: one dose 10^-5 M, 48 h
SN12C = type: cell-based, human; settings: one dose 10^-5 M, 48 h
U251 = type: cell-based; settings: 48 h
OVCAR-4 = type: cell-based; settings: one dose 10^-5 M, 48 h
NCI/ADR-RES = type: cell-based; settings: one dose 10^-5 M, 48 h
SF-539 = type: cell-based; settings: one dose 10^-5 M, 48 h
SW-620 = type: cell-based; settings: one dose 10^-5 M, 48 h
DU-145 = type: cell-based; settings: one dose 10^-5 M, 48 h
MDA-MB-435 = type: cell-based; settings: one dose 10^-5 M, 48 h
SK-MEL-5 = type: cell-based; settings: one dose 10^-5 M, 48 h
SF-295 = type: cell-based; settings: one dose 10^-5 M, 48 h
[2] = Homo sapiens, read-out: % growth

3-Amino-4-[4-(dimethylamino)phenyl]-1H-pyrazolo[3,4-d]pyrimidine-6-thiol [Compound 3a]
% growth (EKVX): 97.12%
% growth (MCF7): 88.54%
% growth (ACHN): 92.14%
% growth (A549/ATCC): 110.12%
% growth (UO-31): 58.31%
% growth (M14): 99.09%
% growth (NCI-H226): 95.19%
% growth (HCC-2998): 108.59%
% growth (786-0): 109.39%
% growth (NCI-H460): 108.52%
% growth (MDA-MB-231/ATCC): 98.99%
% growth (NCI-H23): 98.77%
% growth (UACC-62): 97.30%
% growth (TK-10): 119.65%
% growth (HCT-15): 95.53%
% growth (OVCAR-3): 116.36%
% growth (HS 578T): 108.39%
% growth (K-562; one dose 10^-5 M): 102.48%
% growth (SK-OV-3): 107.23%
% growth (IGROV1; one dose 10^-5 M): 104.23%
% growth (BT-549): 95.32%
% growth (HOP-62): 108.87%
% growth (SF-268): 105.34%
% growth (HT29; one dose 10^-5 M): 108.47%
% growth (COLO 205): 120.31%
% growth (MDA-MB-468): 115.89%
% growth (HOP-92): 116.09%
% growth (CAKI-1): 92.97%
% growth (LOX IMVI): 97.52%
% growth (SR): 90.80%
% growth (MALME-3M): 102.71%
% growth (RPMI-8226): 86.49%
% growth (SK-MEL-2): 111.64%
% growth (MOLT-4): 100.00%
% growth (PC-3): 78.25%
% growth (SNB-75): 116.67%
activity on all 60 cancer cell lines tested (in words) [1]: weak activity
Mean % growth ([1]; one dose 10^-5 M, 48 h, mean over all cell lines): 103.40%
% growth (HCT-116): 101.11%
% growth (SK-MEL-28): 112.69%
% growth (SNB-19): 101.52%
% growth (A498): 162.31%
% growth (OVCAR-8): 104.18%
% growth (KM12): 97.17%
% growth (NCI-H522): 92.08%
% growth (HL-60(TB)): 89.88%
% growth (OVCAR-5): 107.30%
% growth (T-47D): 102.75%
% growth (UACC-257): 110.00%
% growth (CCRF-CEM): 77.55%
% growth (SN12C): 100.69%
% growth (U251; one dose 10^-5 M): 109.49%
% growth (OVCAR-4): 103.10%
% growth (NCI/ADR-RES): 103.45%
% growth (SF-539): 108.53%
% growth (SW-620): 115.71%
% growth (DU-145): 116.81%
% growth (MDA-MB-435): 109.49%
% growth (SK-MEL-5): 104.39%
% growth (SF-295): 105.95%

CN(C)c1ccc(-c2nc(S)nc(N)c2C(=N)NN=Cc2ccccc2)cc1 [Compound 4a, 4-Amino-6-[4-(dimethylamino)phenyl]-2-mercapto-N'-[phenylmethylene] pyrimidine-5-carboximidohydrazide]
% cell growth at 10 µM (EKVX; Homo sapiens): 96.3%
activity at 10 µM (MCF7; [2]): 93.1%
% growth at 10 µM (ACHN; Homo sapiens): 101%
% growth at 10 µM (A549/ATCC; Homo sapiens): 103%
% cell growth at 10 µM (UO-31; Homo sapiens, UO-31, 48 h): 75%
% growth at 10 µM (M14; Homo sapiens): 106%
% growth at 10 µM (NCI-H226; Homo sapiens): 98.6%
% growth at 10 µM (HCC-2998; Homo sapiens): 113%
% growth at 10 µM (786-0; Homo sapiens): 102%
activity at 10 µM (NCI-H460; [2]): 104%
% growth at 10 µM (MDA-MB-231/ATCC; Homo sapiens): 109%
activity at 10 µM (NCI-H23; [2]): 104%
% growth at 10 µM (UACC-62; Homo sapiens): 97.9%
% cell growth at 10 µM (TK-10; Homo sapiens): 105%
activity at 10 µM (HCT-15; [2]): 99.9%
% growth at 10 µM (OVCAR-3; Homo sapiens): 102%
activity at 10 µM (HS 578T; [2]): 113%
% growth at 10 µM (K-562; Homo sapiens, K562, one dose 10^-5 M): 107%
% growth at 10 µM (SK-OV-3; Homo sapiens): 118%
activity at 10 µM (IGROV1; Homo sapiens, IGROV-1, one dose 10^-5 M, read-out: % growth): 111%
% cell growth at 10 µM (BT-549; Homo sapiens): 103%
% growth at 10 µM (HOP-62; Homo sapiens): 109%
activity at 10 µM (SF-268; [2]): 104%
% growth at 10 µM (HT29; Homo sapiens, HT-29, one dose 10^-5 M): 101%
% growth at 10 µM (COLO 205; Homo sapiens): 140%
percent cell growth at 10 µM (MDA-MB-468; Homo sapiens): 117%
% growth at 10 µM (HOP-92; Homo sapiens): 114%
% growth at 10 µM (CAKI-1; Homo sapiens, CAKI-1, 48 h): 99%
activity at 10 µM (LOX IMVI; [2]): 98.3%
percent cell growth at 10 µM (SR; Homo sapiens): 104%
% growth at 10 µM (MALME-3M; Homo sapiens): 105%
% growth at 10 µM (RPMI-8226; Homo sapiens): 89.8%
% growth at 10 µM (SK-MEL-2; Homo sapiens): 108%
activity at 10 µM (MOLT-4; [2]): 106%
percent cell growth at 10 µM (PC-3; Homo sapiens): 85.1%
% growth at 10 µM (SNB-75; Homo sapiens): 101%
activity at 10 µM ([1]; Homo sapiens, 60 cell, 48 h, read-out: Mean % growth): 104%
activity on all 60 cancer cell lines tested (in words) [1]: weak activity
activity at 10 µM (HCT-116; [2]): 110%
% cell growth at 10 µM (SK-MEL-28; Homo sapiens): 105%
activity at 10 µM (SNB-19; [2]): 102%
% growth at 10 µM (A498; Homo sapiens): 107%
% growth of cells at 10 µM (OVCAR-8; Homo sapiens): 115%
% growth at 10 µM (KM12; Homo sapiens): 107%
% growth at 10 µM (NCI-H522; Homo sapiens): 99.4%
% growth at 10 µM (HL-60(TB); Homo sapiens): 94.7%
percent cell growth at 10 µM (OVCAR-5; Homo sapiens): 111%
activity at 10 µM (T-47D; Homo sapiens, T47D, read-out: % growth): 105%
percent cell growth at 10 µM (UACC-257; Homo sapiens): 106%
% cell growth at 10 µM (CCRF-CEM; Homo sapiens): 82%
% growth at 10 µM (SN12C; Homo sapiens): 103%
% growth at 10 µM (U251; Homo sapiens, U-251, one dose 10^-5 M): 111%
% growth at 10 µM (OVCAR-4; Homo sapiens): 101%
cell growth percent at 10 µM (NCI/ADR-RES; Homo sapiens): 104%
% growth at 10 µM (SF-539; Homo sapiens): 106%
% growth at 10 µM (SW-620; Homo sapiens): 108%
% growth at 10 µM (DU-145; Homo sapiens): 104%
activity at 10 µM (MDA-MB-435; [2]): 99.4%
activity at 10 µM (SK-MEL-5; [2]): 103%
% cell growth at 10 µM (SF-295; Homo sapiens): 104%
